Here are results for six molecules from patent publication US20200361919A1, “DEUTERATED INDOLEAMINE 2,3-DIOXYGENASE INHIBITOR AND APPLICATION THEREOF” (NANJING TRANSTHERA BIOSCIENCES CO. LTD., priority 2017, published 2020).

Broadly, the IC50 is the concentration that inhibits the measured activity by half. Usually AUC(0-t) stands for exposure summed from dosing to a finite time, without extrapolation to infinity. Higher therefore signals high exposure.

Each structure is given as a SMILES string. Read-outs that look alike come from different tables or passages of the source.

One data set deals with Hela cells. The experiment in a line: Cytological evaluation in rhIFN-γ stimulated Hela cells. The format is cell-based. The following applies: rhIFN-γ 50 ng/ml, read-out: Hela Cell IC50. The protocol:
Test substances: Compounds 1-3 of the present invention, prepared as described in the previous specific Examples.
Hela cell line (Cell Bank, Chinese Academy of Sciences)
Recombinant human IFN-γ (rhIFN-γ, purchased from R&D Systems, Cat. No. 285-IF-100)
Cell plating: Hela cell suspension was prepared with fresh phenol red-free DMEM medium, and 20,000 cells/well were added to a 96-well cell culture plate, and cultured in 5% carbon dioxide at 37° C. overnight.
Preparation of compounds: the compounds were made up into 0.5 mM solution with DMSO, and the compounds were diluted 3.16 times with DMSO to obtain 8 compound mother liquors of concentration gradients (500×), and diluted with cell culture medium to prepare 10× dilutions.
Medication and incubation: After the cells were seeded and cultured overnight, 10 μL of a compound of the corresponding diluted mother liquor (10×) was added to each well and incubated for 1 hour, then 10 μL of 500 ng/ml rhIFN-γ was added, the final volume of each well was 100 μL. The negative control wells contained 100 μL of 0.5% DMSO cell culture medium and Hela cells. The positive control wells were the wells where rhIFN-γ at a final concentration of 50 ng/ml was added to the negative control wells, and the background control wells contained 100 μL of cell culture medium. After incubation in a 37 ° C. incubator for 24 hours. the cell morphology was observed under an inverted microscope.
Detection: After the cell plate was centrifuged, 80 μL of the supernatant was taken and added to a Corning 96-well plate, 10 μL of trichloroacetic acid was added to each well, shaken, placed in a 60 ° C. incubator for 30 minutes, and centrifuged at 2500 rpm for 5 minutes. 45 μL of the supernatant was taken and transferred to a new plate, 45 μL of chromogenic solution was added, shaken to make the reaction uniform. After incubating at room temperature for 15 minutes, the absorbance at 492 nm wavelength was read.

Data set [1] can be described thus: Stability test of Crystalline Form B. The format is physicochemical. The source says:
Method: Crystalline Form B was left open for 10 days at high temperature and in high humidity conditions. The properties, measured content and impurities of the Crystalline Form B were observed, and the XRPD patterns were compared to obtain the data in Table 6.

For another data set, the target named is T1, IDO-1 (Homo sapiens, UniProt P14902).
T1 construct: made in house
Kind of data set: Enzymatic assay, IDO-1. The format is biochemical. On the procedure: (§1) Test substance: Compound 1 of the present invention, prepared according to the method of Example 1 or the Step 3 of Example 5
(§2) I. Experimental materials and instruments
(§3) Preparation of compound: The compound was made up into 1 mM compound mother liquor with DMSO, and then the compound was diluted 3.16 times with DMSO to obtain 10 concentration gradients (100×) of the compound of the diluted mother liquors..
(§4) Medication and incubation: 10 μL of 100× compound of the diluted mother liquors were added into a 96-well plate, to which was added 10 μL of enzyme solution (IDO-1 or TDO), centrifuged at 2000 rpm for 1 minute, and incubated at room temperature for 30 minutes. 4% DMSO enzyme-free solution was used as a negative control, and 4% DMSO enzyme-containing solution was used as a positive control. 20 μL of substrate mixture (L-tryptophan, ascorbate, methylene blue, catalase) was added and incubated for 1 hour at room temperature, then 20 μL of stop solution was added to the experimental plate to terminate the reaction. After shaking and mixing, incubation was carried out at 60° C. for 30 minutes. […]
(§5) Detection: A microplate reader was used to detect the absorbance value at 492 nm.
(§6) Calculation: The inhibition rate was calculated according to the following formula, using the Spectramax program to fit the curve slope, and using GraphPad Prism5.0 to fit the IC50: […]

The target in the next data set is T2, TDO (Homo sapiens, UniProt P48775).
T2 construct: made in house
The experiment in a line: Enzymatic assay, TDO. The format is biochemical. The protocol:
as §1, §2, §3, §4, §5, §6

The nature of data set [2]: Evaluation of pharmacokinetics in mice. It counts as in vivo, C57BL/6 female mice. The following applies: for Cl_obs / Vz_obs / tz 1/2 / AUC(0-t) / AUC(0-inf): IV 5 mg/kg, C57BL/6 female mice, mean; for AUC(0-t) / AUC(0-inf): mouse, plasma; for AUC(0-inf): read-out: AUCINF_obs. On the procedure:
Test substance: Compound 1 of the present invention,prepared according to the method of Example 1 or Step 3 of Example 5;
Compound R, prepared as described in Example 8.
Animal: C57BL/6 female mice
The Compound 1 used in the test was dissolved in 10% DMA+10% (30% solutol)+80% saline to prepare a solution, and the non-deuterated compound was dissolved in 10% DMA+10% PEG+80% saline to prepare a solution. C57BL/6 female mice were administered intravenously with Compound 1 at a dose of 5.0 mg/kg. The time points for blood sampling were: 5 min, 15 min, 30 min, 1 h, 2 h, 4 h, 6 h, 8 h, and 24 h. About 100 μL of blood was collected from the venous plexus, and the blood sample was placed in an anti-coagulation tube containing EDTA-K2. The blood sample was centrifuged at 8000 rpm for 6 minutes at 4° C. to obtain a plasma sample, wherein the plasma must be prepared within 30 minutes after blood sampling, and stored in −80° C. refrigerator before plasma testing.
The sample (−80° C.) to be tested was taken out from the refrigerator, melted at room temperature and vortexed for 5 minutes; 10 μL of plasma samples of 3 different individuals were precisely pipetted into 1.5 mL centrifuge tubes (for standard curve of plasma, 30 μL); 200 μL of 100 ng/mL internal standard working solution was added, and mixed well; vortexed for 5 min, then centrifuged for 5 min (12000 rpm); precisely pipetted 50 μL of supernatant into a 96-well plate to which was added 150 μL/well of water in advance; vortexed and mixed for 5 min. The injection volume was 15 μL, and LC-MS/MS measurement was carried out.
The concentrations of test substance were used from the analysis results of AB Analyst 1.6.3. Microsoft Excel was used to calculate the parameters such as mean, standard deviation, and coefficient of variation (those directly output from Analyst 1.6.3 were not calculated). The PK parameters were calculated using Pharsight Phoenix 6.1 software NCA.

The next data set has as its system CT26 cells. The experiment in a line: In vivo pharmacodynamics, subcutaneous homograft model with colon cancer cell CT26 in mouse. The arrangement: species or system Balb/C mice. The following applies: 150 mg/kg PO Bid 10 days, CT26 tumor-bearing mice. The protocol:
Test substance: Compound 1 of the present invention, which structure was shown in the foregoing.
CT26 cells were cultured in RPMI1640 medium containing 10% fetal bovine serum. CT26 cells in exponential growth phase were collected, and resuspended in PBS to a suitable concentration for subcutaneous tumor inoculation in mice.
0.1 mL of cell suspension (cells suspended in PBS) containing about 5×10^5 CT26 cells was subcutaneously inoculated into the skin of the right back of female Balb/C mice. The mice were grouped and administrated when the average tumor volume reached about 100 mm^3. Grouping method: weighing animals before administration, and measuring tumor volume. According to tumor volume, the mice were grouped using block design, 9 mice in each group.
Administration was performed according to Table 7 below.
The animals' health and death were monitored daily, their body weights and tumor volumes were measured twice a week, and samples were collected after the last dose. The curative effect of tumor volume was evaluated by TGI%, wherein relative tumor suppression rate TGI (%) was: TGI=1-T/C (%). T/C% was the relative tumor increment rate, that is, the percentage of tumor volume in the treatment group relative to that of the control group at a specific time point. […]

A short description of data set [3]: Stability test of Crystalline Form A. The format is physicochemical. An excerpt: Method: Crystalline Form A was left open at high temperature and in high humidity conditions, and XRPD patterns were compared to […]. The data in Table 5 below were obtained.
Where [4] appears, read: High temperature, 60° C., left open, 10 days.
[5] abbreviates: IV 5 mg/kg mice, compared with Compound R.

T2 sequence (P48775 whole entry, species assumed): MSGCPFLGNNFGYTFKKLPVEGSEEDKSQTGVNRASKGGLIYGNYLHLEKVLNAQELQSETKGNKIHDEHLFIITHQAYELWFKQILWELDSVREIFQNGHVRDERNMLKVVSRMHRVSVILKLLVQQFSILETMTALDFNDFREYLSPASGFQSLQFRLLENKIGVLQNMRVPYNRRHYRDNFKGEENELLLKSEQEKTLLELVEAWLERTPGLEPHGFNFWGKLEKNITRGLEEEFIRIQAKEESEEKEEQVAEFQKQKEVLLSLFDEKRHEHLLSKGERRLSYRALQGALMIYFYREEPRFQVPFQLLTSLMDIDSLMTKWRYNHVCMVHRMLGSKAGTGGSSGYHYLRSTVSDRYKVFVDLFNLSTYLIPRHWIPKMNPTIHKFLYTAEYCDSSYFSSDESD
T1 sequence (P14902 whole entry, species assumed): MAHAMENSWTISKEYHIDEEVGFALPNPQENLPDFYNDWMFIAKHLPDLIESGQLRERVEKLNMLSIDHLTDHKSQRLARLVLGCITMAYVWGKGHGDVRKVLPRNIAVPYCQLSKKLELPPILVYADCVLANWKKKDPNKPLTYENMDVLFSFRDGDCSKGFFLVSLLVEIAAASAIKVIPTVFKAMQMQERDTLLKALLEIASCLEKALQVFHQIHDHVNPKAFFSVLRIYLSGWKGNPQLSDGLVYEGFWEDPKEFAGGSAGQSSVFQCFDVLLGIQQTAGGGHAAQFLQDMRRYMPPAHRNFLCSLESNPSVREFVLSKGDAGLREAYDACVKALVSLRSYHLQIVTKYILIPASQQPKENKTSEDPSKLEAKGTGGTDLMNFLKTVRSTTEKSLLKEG

On to `[2H]C1([2H])CC(Nc2nonc2C(=NO)Nc2ccc(F)c(Br)c2)C([2H])([2H])S1(=O)=O` (stereo not drawn) [Compound 2, N-(3-bromo-4-fluorophenyl)-4-((1,1-dioxotetrahydro-thiophen-3-yl-2,2,5,5-d4)amino)-N-hydroxy-1,2,5-oxadiazole-3-carboxamidine], for which the IC50 in the data set with Hela cells (Homo sapiens, HeLa, 24 h) is 50.5 nM.

As for `[2H]C1([2H])CC(Nc2nonc2C(=NO)Nc2ccc(F)c(Br)c2)CC([2H])([2H])S1(=O)=O` [Crystal Form B of Compound 1], in data set [1] (0-Day), the “Content, %” value is on record as 99.6%; the “Impurity, %” value is recorded as 0.17%; the Properties result is listed as “Off-white”; the XRPD result is given as “Crystal Form B,”. For the same molecule, in data set [1] (setting [4]), the “Content, %” value is recorded as 99.4%; the “Impurity, %” value is reported as 0.16%; the Properties entry was “Off-white”. Further, in data set [1] (RH 92.5%, left open, 10 days), the “Content, %” value is given as 99.3%; the “Impurity, %” value is reported as 0.15%; the Properties result was “Off-white”. Further, the IC50 in the data set with Hela cells (24 hours) turned out to be 30 nM.

Regarding `[2H]C1([2H])CC(Nc2nonc2C(=NO)Nc2ccc(F)c(Br)c2)CC([2H])([2H])S1(=O)=O` [Compound 1, N-(3-bromo-4-fluorophenyl)-4-((1,1-dioxotetrahydro-2H-thian-4-yl-2,2,6,6-d4)amino)-N′-hydroxy-1,2,5-oxadiazole-3-carboxamidine], at IDO-1, half-maximal inhibition (IC50) required 85.4 nM. This molecule also displayed an IC50 on TDO of 5040 nM. In addition, the IC50 in the data set on Hela cells (24 hours) turned out to be 99.7 nM. In addition, in data set [2] (setting [5]), the “clearance rate (in words)” value is given as “lower” and the “exposure amount (in words)” value is “higher”. In data set [2], the Cl_obs worked out at 36.5 mL/min/kg, the Vz_obs amounted to 11.7 L/kg, the “tz 1/2” value came to 3.70 h and the AUC(0-t) stood at 2040 ng·h/mL. In data set [2], the AUC(0-inf) was 2290 ng·h/mL. Further, in the data set on CT26 cells, the “TGI (tumor volume inhibition rate)” value is 38% and the Tumor volume was found to be 414.32 ± 52.44 mm^3.

With `[2H]C1([2H])C(Nc2nonc2C(=NO)Nc2ccc(F)c(Br)c2)C([2H])([2H])S1(=O)=O` [Compound 3, N-(3-bromo-4-fluorophenyl)-4-((1,1-dioxothiacyclobutan-3-yl-2,2,4,4-d4)amino)-N′-hydroxy-1,2,5-oxadiazole-3-carboxamidine], the IC50 with Hela cells (Homo sapiens, HeLa, 24 h) is 49.6 nM.

For the molecule `[2H]C1([2H])CC(Nc2nonc2C(=NO)Nc2ccc(F)c(Br)c2)CC([2H])([2H])S1(=O)=O` [Crystal Form A of Compound 1], the IC50 in the data set on Hela cells (24 hours) was determined as 40 nM. For the same molecule, the “Impurity, %” value turned out to be 0.74% in data set [3] (0-Day) and 0.99% in data set [3] (RH 92.5%, left open, 10 days). In addition, the XRPD entry in data set [3] (0-Day) is on record as “Crystal Form A, FIG. 1”; in data set [3] (High temperature, 105° C., left open, 3 days), “Consistent with the 0-day XRPD”; in data set [3] (RH 92.5%, left open, 3 days), “Consistent with the 0-day XRPD”.

As for `O=S1(=O)CCC(Nc2nonc2C(=NO)Nc2ccc(F)c(Br)c2)CC1` [Compound R, N-(3-bromo-4-fluorophenyl)-4-((1,1-dioxotetrahydro-2H-thian-4-yl)amino)-N′-hydroxy-1,2,5-oxadiazole-3-carboxamidine, reference compound], in data set [2], the Cl_obs was determined as 73.2 mL/min/kg, the Vz_obs stood at 12 L/kg, the “tz 1/2” value was found to be 1.81 h and the AUC(0-t) is 1120 ng·h/mL. In data set [2], the AUC(0-inf) was determined as 1140 ng·h/mL.
